Read-outs that look alike come from different tables or passages of the source. One block for each compound: values may come before it.
Tests used:
[1] = system: barnyardgrass (Echinochloa crus-galli); experiment: Test A postemergence; assay type: in vivo; conditions: Echinochloa crus-galli, post-emergence, 240 h; for pest or weed control at 125 g/ha: 125 g ai/ha; for pest or weed control at 31 g/ha: 31 g ai/ha, visual injury after approx. 10 d, 0 no effect, 100 complete control; for pest or weed control at 500 g/ha: 500 g ai/ha
Method in brief: (§1)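 Visual injury scores from 0, no effect, to 100, complete control, were assigned versus untreated controls roughly 10 d after treatment in the greenhouse. Test chemicals, formulated with surfactant in a non-phytotoxic solvent, were applied to planted seeds as a preemergence soil spray or postemergence to one- to two-leaf plants 2 to 10 cm tall, in loam–sand soil.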

[2] = system: pigweed (Amaranthus retroflexus); experiment: Test A postemergence; assay type: in vivo; conditions: Amaranthus retroflexus, post-emergence, 240 h; for pest or weed control at 125 g/ha: 125 g ai/ha; for pest or weed control at 31 g/ha: 31 g ai/ha, visual injury after approx. 10 d, 0 no effect, 100 complete control; for pest or weed control at 500 g/ha: 500 g ai/ha
Method in brief: as §1

[3] = system: Galium (catchweed bedstraw, Galium aparine); experiment: Test A postemergence; assay type: in vivo; conditions: Galium, post-emergence, 240 h; for pest or weed control at 125 g/ha: 125 g ai/ha; for pest or weed control at 31 g/ha: 31 g ai/ha, visual injury after approx. 10 d, 0 no effect, 100 complete control; for pest or weed control at 500 g/ha: 500 g ai/ha
Method in brief: as §1

corn (Zea mays) = experiment: Test A postemergence; assay type: in vivo; conditions: Zea mays, post-emergence, 240 h; for Corn plant response rating (crop injury, 0 = no effect, 100 = complete kill) at 125 g/ha / plant injury at 125 g/ha: 125 g ai/ha; for Corn plant response rating (crop injury, 0 = no effect, 100 = complete kill) at 125 g/ha: visual injury after approximately 10 d; for Corn plant response rating (crop injury, 0 = no effect, 100 = complete kill) at 31 g/ha: 31 g ai/ha, visual injury after approx. 10 d, 100 complete control; for plant injury at 125 g/ha: read-out: Corn plant response rating (0 to 100 scale); for Corn plant response rating (crop injury, 0 = no effect, 100 = complete kill) at 500 g/ha: visual injury, approx. 10 d
Method in brief: as §1

[4] = system: giant foxtail (Setaria faberii); experiment: Test A postemergence; assay type: in vivo; conditions: Setaria faberi, post-emergence, 240 h; for pest or weed control at 125 g/ha: 125 g ai/ha; for pest or weed control at 31 g/ha: 31 g ai/ha, visual injury after approx. 10 d, 0 no effect, 100 complete control; for pest or weed control at 500 g/ha: 500 g ai/ha
Method in brief: as §1

[5] = postemergence, visual injury after approximately 10 d, 0 to 100 scale (0 no effect, 100 complete control), read-out: Plant response rating, Barnyardgrass
[6] = Postemergence, 0 to 100 scale, read-out: Plant response rating, Barnyardgrass
[7] = postemergence, visual injury after approximately 10 d, 0 to 100 scale (0 no effect, 100 complete control), read-out: Plant response rating, Pigweed
[8] = Postemergence, 0 to 100 scale, read-out: Plant response rating, Pigweed
[9] = postemergence, visual injury after approximately 10 d, 0 to 100 scale (0 no effect, 100 complete control), read-out: Plant response rating, Galium
[10] = Postemergence, 0 to 100 scale, read-out: Plant response rating, Galium
[11] = postemergence, 0 to 100 scale (0 no effect, 100 complete control)
[12] = postemergence, visual injury after approximately 10 d, 0 to 100 scale (0 no effect, 100 complete control), read-out: Plant response rating, Foxtail, Giant
[13] = Postemergence, 0 to 100 scale, read-out: Plant response rating, Foxtail, Giant
[14] = Postemergence, visual injury after approximately 10 d, 0 to 100 scale where 0 is no effect and 100 is complete control, read-out: Plant response rating, Barnyardgrass
[15] = Postemergence, visual injury after approximately 10 d, 0 to 100 scale where 0 is no effect and 100 is complete control, read-out: Plant response rating, Pigweed
[16] = Postemergence, visual injury after approximately 10 d, 0 to 100 scale where 0 is no effect and 100 is complete control, read-out: Plant response rating, Galium
[17] = Postemergence, 0 to 100 scale where 0 is no effect and 100 is complete control
[18] = Postemergence, visual injury after approximately 10 d, 0 to 100 scale where 0 is no effect and 100 is complete control, read-out: Plant response rating, Foxtail, Giant
[19] = Postemergence, visual rating about 10 d after treatment, read-out: Barnyardgrass plant response rating (0 to 100 scale, 0 no effect, 100 complete control)
[20] = Postemergence, visual injury, 0 to 100 scale (0 no effect, 100 complete control), approx. 10 d, read-out: Plant response rating, Barnyardgrass
[21] = Postemergence, visual rating about 10 d after treatment, read-out: Pigweed plant response rating (0 to 100 scale)
[22] = Postemergence, visual injury, 0 to 100 scale (0 no effect, 100 complete control), approx. 10 d, read-out: Plant response rating, Pigweed
[23] = Postemergence, visual rating about 10 d after treatment, read-out: Galium plant response rating (0 to 100 scale)
[24] = Postemergence, visual injury, 0 to 100 scale (0 no effect, 100 complete control), approx. 10 d, read-out: Plant response rating, Galium
[25] = Postemergence, visual rating about 10 d after treatment
[26] = Postemergence, 500 g ai/ha, 0 to 100 scale (0 no effect, 100 complete control)
[27] = Postemergence, visual rating about 10 d after treatment, read-out: Foxtail, Giant plant response rating (0 to 100 scale)
[28] = Postemergence, visual injury, 0 to 100 scale (0 no effect, 100 complete control), approx. 10 d, read-out: Plant response rating, Foxtail, Giant

SMILES: C/C=C/C1CNC(=O)C1C(=O)Nc1ccccc1F (stereo not shown) [Compound 792]
melting point: 133 to 137 °C
pest or weed control at 125 g/ha [1, 5]: 0%
pest or weed control at 31 g/ha [1, 6]: 0%
pest or weed control at 125 g/ha [2, 7]: 0%
pest or weed control at 31 g/ha [2, 8]: 0%
pest or weed control at 125 g/ha [3, 9]: 0%
pest or weed control at 31 g/ha [3, 10]: 0%
Corn plant response rating (crop injury, 0 = no effect, 100 = complete kill) at 125 g/ha (corn (Zea mays); [11]): 0%
Corn plant response rating (crop injury, 0 = no effect, 100 = complete kill) at 31 g/ha (corn (Zea mays); Postemergence, 0 to 100 scale): 0%
pest or weed control at 125 g/ha [4, 12]: 0%
pest or weed control at 31 g/ha [4, 13]: 0%

SMILES: O=C1NCC[C@H](c2ccc(Cl)cc2)[C@H]1C(=O)Nc1cccc(F)c1F [Compound 795]
melting point: 86 to 89 °C
pest or weed control at 125 g/ha [1, 5]: 70%
pest or weed control at 31 g/ha [1, 6]: 20%
pest or weed control at 125 g/ha [2, 7]: 0%
pest or weed control at 31 g/ha [2, 8]: 0%
pest or weed control at 125 g/ha [3, 9]: 0%
pest or weed control at 31 g/ha [3, 10]: 0%
Corn plant response rating (crop injury, 0 = no effect, 100 = complete kill) at 125 g/ha (corn (Zea mays); [11]): 0%
Corn plant response rating (crop injury, 0 = no effect, 100 = complete kill) at 31 g/ha (corn (Zea mays); Postemergence, 0 to 100 scale): 0%
pest or weed control at 125 g/ha [4, 12]: 50%
pest or weed control at 31 g/ha [4, 13]: 0%

SMILES: CCc1ccccc1NC(=O)[C@H]1C(=O)N(C)C[C@@H]1c1ccc(C(F)(F)F)cc1 [Compound 935]
melting point: 116 to 119 °C
pest or weed control at 125 g/ha [1, 14]: 70%
pest or weed control at 125 g/ha [2, 15]: 20%
pest or weed control at 125 g/ha [3, 16]: 40%
Corn plant response rating (crop injury, 0 = no effect, 100 = complete kill) at 125 g/ha (corn (Zea mays); [17]): 40%
pest or weed control at 125 g/ha [4, 18]: 90%

SMILES: CN1C[C@H](c2ccc(C(F)(F)F)cc2)[C@@H](C(=O)Nc2cccc(F)c2Cl)C1=O [Compound 938]
melting point: 169 to 172 °C
pest or weed control at 125 g/ha [1, 14]: 80%
pest or weed control at 125 g/ha [2, 15]: 50%
pest or weed control at 125 g/ha [3, 16]: 50%
Corn plant response rating (crop injury, 0 = no effect, 100 = complete kill) at 125 g/ha (corn (Zea mays); [17]): 60%
pest or weed control at 125 g/ha [4, 18]: 80%

Second part, led by results:

melting point: 164 to 167 °C
SMILES: O=C1NC[C@H](c2cccc(C(F)(F)F)n2)[C@H]1C(=O)Nc1ccccc1F [Compound 940]
pest or weed control at 125 g/ha [1, 14]: 10%
pest or weed control at 125 g/ha [2, 15]: 0%
pest or weed control at 125 g/ha [3, 16]: 0%
Corn plant response rating (crop injury, 0 = no effect, 100 = complete kill) at 125 g/ha (corn (Zea mays); [17]): 0%
pest or weed control at 125 g/ha [4, 18]: 0%

melting point: 144 to 148 °C
SMILES: Cc1cc([C@H]2CN(C)C(=O)[C@@H]2C(=O)Nc2cccc(F)c2F)on1 [Compound 1196]
pest or weed control at 125 g/ha ([1]; postemergence, visual injury vs untreated controls after approx. 10 d, 0 = no effect, 100 = complete control, read-out: Barnyardgrass plant response rating (0 to 100 scale)): 70%
pest or weed control at 500 g/ha ([1]; postemergence, 0 to 100 scale, 0 is no effect, 100 is complete control, read-out: Barnyardgrass plant response rating): 90%
pest or weed control at 125 g/ha ([2]; postemergence, visual injury vs untreated controls after approx. 10 d, 0 = no effect, 100 = complete control, read-out: Pigweed plant response rating (0 to 100 scale)): 0%
pest or weed control at 500 g/ha ([2]; postemergence, 0 to 100 scale, 0 is no effect, 100 is complete control, read-out: Pigweed plant response rating): 0%
pest or weed control at 125 g/ha ([3]; postemergence, visual injury vs untreated controls after approx. 10 d, 0 = no effect, 100 = complete control, read-out: Galium plant response rating (0 to 100 scale)): 0%
pest or weed control at 500 g/ha ([3]; postemergence, 0 to 100 scale, 0 is no effect, 100 is complete control, read-out: Galium plant response rating): 0%
plant injury at 125 g/ha (corn (Zea mays); postemergence, visual injury vs untreated controls after approx. 10 d, 0 = no effect, 100 = complete control): 0%
plant injury at 500 g/ha (corn (Zea mays); 500 g ai/ha, postemergence, 0 to 100 scale, 0 is no effect, 100 is complete control, read-out: Corn plant response rating): 0%
pest or weed control at 125 g/ha ([4]; postemergence, visual injury vs untreated controls after approx. 10 d, 0 = no effect, 100 = complete control, read-out: Foxtail, Giant plant response rating (0 to 100 scale)): 30%
pest or weed control at 500 g/ha ([4]; postemergence, 0 to 100 scale, 0 is no effect, 100 is complete control, read-out: Foxtail, Giant plant response rating): 80%

melting point: 166 to 170 °C
SMILES: O=C1NC[C@H](c2nccc(C(F)(F)F)n2)[C@H]1C(=O)Nc1ccccc1F [Compound 1304]
pest or weed control at 125 g/ha [1, 19]: 0%
pest or weed control at 500 g/ha [1, 20]: 0%
pest or weed control at 125 g/ha [2, 21]: 0%
pest or weed control at 500 g/ha [2, 22]: 0%
pest or weed control at 125 g/ha [3, 23]: 0%
pest or weed control at 500 g/ha [3, 24]: 0%
plant injury at 125 g/ha (corn (Zea mays); [25]): 0%
Corn plant response rating (crop injury, 0 = no effect, 100 = complete kill) at 500 g/ha (corn (Zea mays); [26]): 0%
pest or weed control at 125 g/ha [4, 27]: 0%
pest or weed control at 500 g/ha [4, 28]: 0%

melting point: 111 to 142 °C
SMILES: O=C1NC[C@H](c2cncs2)[C@H]1C(=O)Nc1cccc(F)c1F [Compound 1336]
pest or weed control at 125 g/ha [1, 19]: 0%
pest or weed control at 500 g/ha [1, 20]: 0%
pest or weed control at 125 g/ha [2, 21]: 0%
pest or weed control at 500 g/ha [2, 22]: 0%
pest or weed control at 125 g/ha [3, 23]: 0%
pest or weed control at 500 g/ha [3, 24]: 0%
plant injury at 125 g/ha (corn (Zea mays); [25]): 0%
Corn plant response rating (crop injury, 0 = no effect, 100 = complete kill) at 500 g/ha (corn (Zea mays); [26]): 0%
pest or weed control at 125 g/ha [4, 27]: 0%
pest or weed control at 500 g/ha [4, 28]: 0%

Source: patent US12077503B2, “Substituted cyclic amides and their use as herbicides” (FMC CORPORATION, priority 2015, dated 2024)
